Test results from PubChem BioAssay (NCI).
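48-hour exposure; five concentrations; linearly interpolated endpoints. At the GI50, growth is halved. Definition used: TGI = concentration required for complete inhibition of growth.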

Assays:
Experiment in all cases: growth of human tumour cells (NCI), 48 h
[1] = tested on: 786-0 renal
[2] = tested on: A498 renal
[3] = tested on: A549 NSCLC
[4] = tested on: ACHN renal
[5] = tested on: BT-549 breast
[6] = tested on: CAKI-1 renal
[7] = tested on: CCRF-CEM leukemia
[8] = tested on: COLO 205 colon
[9] = tested on: DU-145 prostate
[10] = tested on: EKVX NSCLC
[11] = tested on: HCC-2998 colon
[12] = tested on: HCT-116 colon
[13] = tested on: HCT-15 colon
[14] = tested on: HL-60(TB) leukemia
[15] = tested on: HOP-62 NSCLC
[16] = tested on: HOP-92 NSCLC
[17] = tested on: HS 578T breast
[18] = tested on: HT29 colon
[19] = tested on: IGROV1 ovarian
[20] = tested on: K-562 leukemia
[21] = tested on: KM12 colon
[22] = tested on: LOX IMVI melanoma
[23] = tested on: M14 melanoma
[24] = tested on: MALME-3M melanoma
[25] = tested on: MCF7 breast
[26] = tested on: MDA-MB-231 breast
[27] = tested on: MDA-MB-435
[28] = tested on: MDA-MB-468 breast
[29] = tested on: MOLT-4 leukemia
[30] = tested on: NCI-H226 lung
[31] = tested on: NCI-H23 lung
[32] = tested on: NCI-H460 lung
[33] = tested on: NCI-H522 lung
[34] = tested on: NCI/ADR-RES ovarian
[35] = tested on: OVCAR-3 ovarian
[36] = tested on: OVCAR-4 ovarian
[37] = tested on: OVCAR-5 ovarian
[38] = tested on: OVCAR-8 ovarian
[39] = tested on: PC-3 prostate
[40] = tested on: RPMI-8226 leukemia
[41] = tested on: RXF 393 renal
[42] = tested on: SF-268 CNS
[43] = tested on: SF-295 CNS
[44] = tested on: SF-539 CNS
[45] = tested on: SK-MEL-2 melanoma
[46] = tested on: SK-MEL-28 melanoma
[47] = tested on: SK-MEL-5 melanoma
[48] = tested on: SK-OV-3 ovarian
[49] = tested on: SN12C renal
[50] = tested on: SNB-19 CNS
[51] = tested on: SNB-75 CNS
[52] = tested on: SR leukemia
[53] = tested on: SW-620 colon
[54] = tested on: T-47D breast
[55] = tested on: TK-10 renal
[56] = tested on: U251 CNS
[57] = tested on: UACC-257 melanoma
[58] = tested on: UACC-62 melanoma
[59] = tested on: UO-31 renal

SMILES: CCN(CC)CCOc1ccc(C(=C(C)c2ccccc2)c2ccc(OCCN(CC)CC)cc2)cc1
- GI50 [1]: 2.98 µM
- TGI [1]: 6.77 µM
- GI50 [2]: 2.73 µM
- TGI [2]: 5.62 µM
- GI50 [3]: 4.54 µM
- TGI [3]: 13.3 µM
- GI50 [4]: 3.63 µM
- TGI [4]: 6.97 µM
- GI50 [5]: 4.46 µM
- TGI [5]: 8.15 µM
- GI50 [6]: 3.42 µM
- TGI [6]: 7.07 µM
- GI50 [7]: 2.37 µM
- TGI [7]: 6.61 µM
- GI50 [8]: 3.36 µM
- TGI [8]: 6.89 µM
- GI50 [9]: 6 µM
- TGI [9]: > 23 µM
- GI50 [10]: 5.71 µM
- TGI [10]: > 23 µM
- GI50 [11]: 2.91 µM
- TGI [11]: 6.14 µM
- GI50 [12]: 2.39 µM
- TGI [12]: 7.09 µM
- GI50 [13]: 2.6 µM
- TGI [13]: 6.85 µM
- GI50 [14]: 4.36 µM
- TGI [14]: 22.1 µM
- GI50 [15]: 3.54 µM
- TGI [15]: 7.31 µM
- GI50 [16]: 1.76 µM
- TGI [16]: 6.5 µM
- GI50 [17]: 4.08 µM
- TGI [17]: 10.2 µM
- GI50 [18]: 1.17 µM
- TGI [18]: 5.6 µM
- GI50 [19]: 4.27 µM
- TGI [19]: 9.79 µM
- GI50 [20]: 0.968 µM
- TGI [20]: > 23 µM
- GI50 [21]: 3.47 µM
- TGI [21]: 7.22 µM
- GI50 [22]: 3.14 µM
- TGI [22]: 6.25 µM
- GI50 [23]: 3.34 µM
- TGI [23]: 7.71 µM
- GI50 [24]: 3.61 µM
- TGI [24]: 6.73 µM
- GI50 [25]: 0.75 µM
- TGI [25]: 4.18 µM
- GI50 [26]: 3.04 µM
- TGI [26]: 6.14 µM
- GI50 [27]: 3.02 µM
- TGI [27]: 6.48 µM
- GI50 [28]: 1.84 µM
- TGI [28]: 5.04 µM
- GI50 [29]: 4.71 µM
- TGI [29]: 14.8 µM
- GI50 [30]: 5.92 µM
- TGI [30]: > 23 µM
- GI50 [31]: 4.27 µM
- TGI [31]: 10.7 µM
- GI50 [32]: 3.57 µM
- TGI [32]: 6.96 µM
- GI50 [33]: 3.63 µM
- TGI [33]: 7.85 µM
- GI50 [34]: 4.71 µM
- TGI [34]: 13.9 µM
- GI50 [35]: 2.96 µM
- TGI [35]: 7.11 µM
- GI50 [36]: 4.56 µM
- TGI [36]: 11.7 µM
- GI50 [37]: 3.45 µM
- TGI [37]: 7.76 µM
- GI50 [38]: 6.12 µM
- TGI [38]: 18.1 µM
- GI50 [39]: 3.59 µM
- TGI [39]: 8.25 µM
- GI50 [40]: 3.51 µM
- TGI [40]: 8.8 µM
- GI50 [41]: 2.47 µM
- TGI [41]: 6.46 µM
- GI50 [42]: 3.47 µM
- TGI [42]: 8.81 µM
- GI50 [43]: 3.58 µM
- TGI [43]: 7.26 µM
- GI50 [44]: 3.35 µM
- TGI [44]: 6.4 µM
- GI50 [45]: 4.13 µM
- TGI [45]: 7.85 µM
- GI50 [46]: 3.52 µM
- TGI [46]: 6.65 µM
- GI50 [47]: 3.57 µM
- TGI [47]: 6.78 µM
- GI50 [48]: 3.69 µM
- TGI [48]: 7.16 µM
- GI50 [49]: 3.52 µM
- TGI [49]: 7.22 µM
- GI50 [50]: 4.29 µM
- TGI [50]: 8.7 µM
- GI50 [51]: 3.07 µM
- TGI [51]: 6.98 µM
- GI50 [52]: 2.44 µM
- TGI [52]: > 23 µM
- GI50 [53]: 3.1 µM
- TGI [53]: 6.31 µM
- GI50 [54]: 2.66 µM
- TGI [54]: 5.98 µM
- GI50 [55]: 3.17 µM
- TGI [55]: 6.66 µM
- GI50 [56]: 3.69 µM
- TGI [56]: 7.44 µM
- GI50 [57]: 4.25 µM
- TGI [57]: 8.08 µM
- GI50 [58]: 3.89 µM
- TGI [58]: 7.12 µM
- GI50 [59]: 2.99 µM
- TGI [59]: 5.97 µM

SMILES: C#CCN(C)CCCOc1ccc(N(C)C(=O)c2cc(C(C)C)c(O)cc2O)cc1Cl
- GI50 [1]: 2.6 µM
- TGI [1]: 18.7 µM
- GI50 [2]: 0.642 µM
- TGI [2]: 16.5 µM
- GI50 [3]: 0.188 µM
- TGI [3]: 15.4 µM
- GI50 [4]: 0.0963 µM
- TGI [4]: 13.5 µM
- GI50 [5]: 1.09 µM
- TGI [5]: 15.4 µM
- GI50 [6]: 0.325 µM
- TGI [6]: 14.9 µM
- GI50 [7]: 0.0625 µM
- TGI [7]: 13.3 µM
- GI50 [8]: 2.83 µM
- TGI [8]: 12.5 µM
- GI50 [9]: 0.0592 µM
- TGI [9]: 18.2 µM
- GI50 [10]: 0.526 µM
- TGI [10]: 12.7 µM
- GI50 [11]: 0.224 µM
- TGI [11]: 2.04 µM
- GI50 [12]: 0.0889 µM
- TGI [12]: 13.3 µM
- GI50 [13]: 0.0827 µM
- TGI [13]: 12.7 µM
- GI50 [14]: 0.0533 µM
- TGI [14]: 9.1 µM
- GI50 [15]: 0.249 µM
- TGI [15]: 19.6 µM
- GI50 [16]: 0.328 µM
- TGI [16]: 3.59 µM
- GI50 [17]: 1.33 µM
- TGI [17]: 27.1 µM
- GI50 [18]: 3.27 µM
- TGI [18]: 13.9 µM
- GI50 [19]: 0.172 µM
- TGI [19]: 14.7 µM
- GI50 [20]: 0.0788 µM
- TGI [20]: 19.4 µM
- GI50 [21]: 0.105 µM
- TGI [21]: 10.9 µM
- GI50 [22]: 0.129 µM
- TGI [22]: 0.303 µM
- GI50 [23]: 0.406 µM
- TGI [23]: 13.8 µM
- GI50 [24]: 0.195 µM
- TGI [24]: 2.23 µM
- GI50 [25]: 0.0522 µM
- TGI [25]: 15.4 µM
- GI50 [26]: 0.213 µM
- TGI [26]: 10.9 µM
- GI50 [27]: 0.133 µM
- TGI [27]: 12.4 µM
- GI50 [28]: 0.0962 µM
- TGI [28]: 0.462 µM
- GI50 [29]: 0.101 µM
- TGI [29]: 12.5 µM
- GI50 [30]: 0.557 µM
- TGI [30]: 19.8 µM
- GI50 [31]: 0.298 µM
- TGI [31]: 15 µM
- GI50 [32]: 0.0679 µM
- TGI [32]: 10.9 µM
- GI50 [33]: 0.165 µM
- TGI [33]: 14.1 µM
- GI50 [34]: 0.305 µM
- TGI [34]: 8.93 µM
- GI50 [35]: 0.509 µM
- TGI [35]: 16.8 µM
- GI50 [36]: 2.01 µM
- TGI [36]: 22.2 µM
- GI50 [37]: 0.477 µM
- TGI [37]: 16 µM
- GI50 [38]: 0.202 µM
- TGI [38]: 21 µM
- GI50 [39]: 0.161 µM
- TGI [39]: 16 µM
- GI50 [40]: 0.266 µM
- TGI [40]: 20.5 µM
- GI50 [41]: 0.685 µM
- TGI [41]: 13.8 µM
- GI50 [42]: 1.32 µM
- TGI [42]: 25.9 µM
- GI50 [43]: 0.348 µM
- TGI [43]: 12.7 µM
- GI50 [44]: 0.325 µM
- TGI [44]: 12.9 µM
- GI50 [45]: 1.72 µM
- TGI [45]: 18.6 µM
- GI50 [46]: 0.386 µM
- TGI [46]: 13.3 µM
- GI50 [47]: 0.357 µM
- TGI [47]: 2.02 µM
- GI50 [48]: 0.0534 µM
- TGI [48]: 12.9 µM
- GI50 [49]: 0.0925 µM
- TGI [49]: 14.2 µM
- GI50 [50]: 0.435 µM
- TGI [50]: 15.4 µM
- GI50 [51]: 0.977 µM
- TGI [51]: 17.8 µM
- GI50 [52]: 0.0409 µM
- TGI [52]: 19.4 µM
- GI50 [53]: 0.102 µM
- TGI [53]: 13.9 µM
- GI50 [54]: 0.0853 µM
- TGI [54]: 13.5 µM
- GI50 [55]: 0.323 µM
- TGI [55]: 16.8 µM
- GI50 [56]: 0.283 µM
- TGI [56]: 16 µM
- GI50 [57]: 0.521 µM
- TGI [57]: 13.8 µM
- GI50 [58]: 0.168 µM
- TGI [58]: 0.913 µM
- GI50 [59]: 0.148 µM
- TGI [59]: 14.2 µM
